Source: the supplement of paper PMC10307832

Experiments:
Assay in all cases: relative viability (nuclei count vs DMSO), 5 days (fraction); higher = more cells survive
Alpelisib + Linsitinib = compound: Cc1nc(NC(=O)N2CCC[C@H]2C(N)=O)sc1-c1ccnc(C(C)(C)C(F)(F)F)c1 [Alpelisib] + C[C@]1(O)C[C@@H](c2nc(-c3ccc4ccc(-c5ccccc5)nc4c3)c3c(N)nccn32)C1 [Linsitinib] (partner 1 µM)
Method in brief: (§1)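 Relative viability divides the nuclei count in treated wells by that in vehicle wells. Lung cancer cell lines were seeded in 1536-well plates, dosed by pin tool the next day, and fixed and stained after 5 days in one step with final 0.05% Triton X-100, 1% formaldehyde and 1 ug/ml Hoechst. Dosing was a single drug or a fixed anchor-drug dose plus five library-drug doses (not always all listed) in √10 steps, and values are medians of duplicate plates imaged at 4×.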

Vemurafenib + Pemetrexed = compound: CCCS(=O)(=O)Nc1ccc(F)c(C(=O)c2c[nH]c3ncc(-c4ccc(Cl)cc4)cc23)c1F [Vemurafenib] + Nc1nc2[nH]cc(CCc3ccc(C(=O)N[C@@H](CCC(=O)O)C(=O)O)cc3)c2c(=O)[nH]1 [Pemetrexed] (partner 0.2 µM)
Method in brief: as §1

OSI-027 + Alpelisib = compound: COc1cccc2cc(-c3nc([C@H]4CC[C@H](C(=O)O)CC4)n4ncnc(N)c34)[nH]c12 [OSI-027] + Cc1nc(NC(=O)N2CCC[C@H]2C(N)=O)sc1-c1ccnc(C(C)(C)C(F)(F)F)c1 [Alpelisib] (partner 2 µM)
Method in brief: as §1

OSI-027 + Lapatinib = compound: COc1cccc2cc(-c3nc([C@H]4CC[C@H](C(=O)O)CC4)n4ncnc(N)c34)[nH]c12 [OSI-027] + CS(=O)(=O)CCNCc1ccc(-c2ccc3ncnc(Nc4ccc(OCc5cccc(F)c5)c(Cl)c4)c3c2)o1 [Lapatinib] (partner 2 µM)
Method in brief: as §1

Cell Line	relative viability (Alpelisib + Linsitinib; first compound 0.04 µM)	relative viability (Alpelisib + Linsitinib; first compound 0.1265 µM)	relative viability (Alpelisib + Linsitinib; first compound 0.4 µM)	relative viability (Alpelisib + Linsitinib; first compound 1.265 µM)	relative viability (Alpelisib + Linsitinib; first compound 4 µM)	relative viability (Vemurafenib + Pemetrexed; first compound 0.03162 µM)	relative viability (Vemurafenib + Pemetrexed; first compound 0.3162 µM)	relative viability (Vemurafenib + Pemetrexed; first compound 1 µM)	relative viability (OSI-027 + Alpelisib; first compound 0.01 µM)	relative viability (OSI-027 + Alpelisib; first compound 0.03162 µM)	relative viability (OSI-027 + Alpelisib; first compound 0.1 µM)	relative viability (OSI-027 + Alpelisib; first compound 0.3162 µM)	relative viability (OSI-027 + Alpelisib; first compound 1 µM)	relative viability (OSI-027 + Lapatinib; first compound 0.01 µM)	relative viability (OSI-027 + Lapatinib; first compound 0.03162 µM)	relative viability (OSI-027 + Lapatinib; first compound 0.1 µM)	relative viability (OSI-027 + Lapatinib; first compound 0.3162 µM)	relative viability (OSI-027 + Lapatinib; first compound 1 µM)	relative viability (Vemurafenib + Pemetrexed; first compound 0.1 µM)
COR-L 105	1.04	0.874	0.976	0.902	0.841	0.939	1.2	1.05	1.05	0.85	0.963	0.658	0.524	0.34	0.356	0.336	0.297	0.295	–
EKVX	0.923	0.941	1.11	0.901	0.821	0.379	0.405	0.442	0.731	0.849	0.73	0.625	0.351	0.169	0.189	0.201	0.16	0.153	–
EMC-BAC-2	0.773	0.811	0.79	0.657	0.678	0.447	0.358	0.437	0.723	0.727	0.647	0.558	0.309	0.843	0.874	0.838	0.7	0.516	0.475
EPLC-272H	1.1	0.977	1.34	0.937	0.893	0.319	0.396	0.328	0.889	0.866	0.828	0.619	0.599	1.12	0.965	0.699	0.664	0.55	0.336
H3255	0.979	1.01	1.07	0.715	0.794	0.551	0.515	0.566	0.589	0.731	0.537	0.503	0.376	0.22	0.269	0.234	0.183	0.234	–
HARA	0.885	0.947	1.08	0.719	0.358	0.24	0.2	0.246	0.81	0.655	0.785	0.495	0.291	0.741	0.577	0.549	0.418	0.405	0.234
HCC-15	0.892	0.873	0.878	0.863	0.767	0.227	0.209	0.222	0.928	0.826	0.806	0.674	0.288	0.872	0.849	0.819	0.763	0.529	0.226
HCC-44	0.707	0.7	0.738	0.582	0.543	0.617	0.654	0.625	0.795	0.775	0.738	0.574	0.215	1.05	0.975	0.93	0.85	0.444	0.609
HCC-78	0.448	0.477	0.601	0.42	0.345	0.925	0.932	0.921	0.337	0.3	0.248	0.14	0.163	0.6	0.77	0.472	0.787	0.518	0.922
HCC-366	0.716	0.519	0.375	0.327	0.152	0.178	–	0.151	0.373	0.423	0.256	0.243	0.1	1.25	1.1	1.16	0.764	0.148	0.166
HCC-827	0.942	0.979	1.04	0.925	0.924	0.273	0.287	0.238	0.871	1.03	0.921	0.736	0.281	0.151	0.173	0.205	0.185	0.176	–
HOP-62	0.801	0.959	1.16	0.976	0.922	0.368	0.208	0.354	1.13	0.881	0.934	0.81	0.333	1.1	1.09	0.848	0.849	0.855	0.318
LC-2-ad	0.766	0.798	0.839	0.724	0.66	0.252	0.249	0.276	0.886	0.876	0.723	0.74	0.304	1.05	0.981	0.978	1.1	0.709	0.254
LCLC-97TM1	0.167	0.167	0.192	0.157	0.16	–	0.185	0.149	0.208	0.207	0.203	0.145	0.123	1.31	1.18	0.598	0.376	0.222	0.163
LK-2	0.385	0.574	0.549	0.46	0.687	0.247	0.26	0.304	1.18	0.835	0.84	0.321	0.165	0.861	0.789	0.609	0.385	0.268	0.274
LOU-NH91	0.989	0.828	0.782	0.735	0.653	0.372	0.337	0.382	0.692	0.689	0.616	0.558	0.47	0.727	0.702	0.626	0.598	0.482	0.464
LU99A	0.501	0.477	0.548	0.427	0.311	0.229	–	0.199	0.486	0.455	0.312	0.193	0.204	0.834	0.921	0.789	0.309	0.218	0.196
